# From patent US11046699B2, “Pyrazolo-pyrimidin-amino-cycloalkyl compounds and their therapeutic uses” (RAPT THERAPEUTICS, INC., priority 2018, dated 2021)
# Like-named read-outs stand apart in the source and are kept apart here.
# Biological target: GCN2 (Homo sapiens, UniProt Q9P2K8)
# Test: GCN2 enzymatic endpoint assay: phosphorylation of GFP-eIF2α measured by TR-FRET (Lanthascreen)
# Type: biochemical
# How it was run: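 Endpoint kinase reaction with 2 μM ATP and 80 nM GFP-labelled eIF2α substrate, run at room temperature for 90 min, then stopped with EDTA. Phospho-substrate detected by terbium-antibody TR-FRET, activity taken as the 520/495 nm emission ratio.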
# [1] = tested as described in Example 77, compound and/or hydrochloride, dihydrochloride or trifluoroacetic acid salt, read-out: IC 50 Activity
# [2] = GCN2 biochemical IC50, 4 nM GCN2, 2 μM ATP, 80 nM GFP-eIF2α, 90 min RT, read-out: GCN2 activity
# Chain of GCN2 (Q9P2K8 whole entry): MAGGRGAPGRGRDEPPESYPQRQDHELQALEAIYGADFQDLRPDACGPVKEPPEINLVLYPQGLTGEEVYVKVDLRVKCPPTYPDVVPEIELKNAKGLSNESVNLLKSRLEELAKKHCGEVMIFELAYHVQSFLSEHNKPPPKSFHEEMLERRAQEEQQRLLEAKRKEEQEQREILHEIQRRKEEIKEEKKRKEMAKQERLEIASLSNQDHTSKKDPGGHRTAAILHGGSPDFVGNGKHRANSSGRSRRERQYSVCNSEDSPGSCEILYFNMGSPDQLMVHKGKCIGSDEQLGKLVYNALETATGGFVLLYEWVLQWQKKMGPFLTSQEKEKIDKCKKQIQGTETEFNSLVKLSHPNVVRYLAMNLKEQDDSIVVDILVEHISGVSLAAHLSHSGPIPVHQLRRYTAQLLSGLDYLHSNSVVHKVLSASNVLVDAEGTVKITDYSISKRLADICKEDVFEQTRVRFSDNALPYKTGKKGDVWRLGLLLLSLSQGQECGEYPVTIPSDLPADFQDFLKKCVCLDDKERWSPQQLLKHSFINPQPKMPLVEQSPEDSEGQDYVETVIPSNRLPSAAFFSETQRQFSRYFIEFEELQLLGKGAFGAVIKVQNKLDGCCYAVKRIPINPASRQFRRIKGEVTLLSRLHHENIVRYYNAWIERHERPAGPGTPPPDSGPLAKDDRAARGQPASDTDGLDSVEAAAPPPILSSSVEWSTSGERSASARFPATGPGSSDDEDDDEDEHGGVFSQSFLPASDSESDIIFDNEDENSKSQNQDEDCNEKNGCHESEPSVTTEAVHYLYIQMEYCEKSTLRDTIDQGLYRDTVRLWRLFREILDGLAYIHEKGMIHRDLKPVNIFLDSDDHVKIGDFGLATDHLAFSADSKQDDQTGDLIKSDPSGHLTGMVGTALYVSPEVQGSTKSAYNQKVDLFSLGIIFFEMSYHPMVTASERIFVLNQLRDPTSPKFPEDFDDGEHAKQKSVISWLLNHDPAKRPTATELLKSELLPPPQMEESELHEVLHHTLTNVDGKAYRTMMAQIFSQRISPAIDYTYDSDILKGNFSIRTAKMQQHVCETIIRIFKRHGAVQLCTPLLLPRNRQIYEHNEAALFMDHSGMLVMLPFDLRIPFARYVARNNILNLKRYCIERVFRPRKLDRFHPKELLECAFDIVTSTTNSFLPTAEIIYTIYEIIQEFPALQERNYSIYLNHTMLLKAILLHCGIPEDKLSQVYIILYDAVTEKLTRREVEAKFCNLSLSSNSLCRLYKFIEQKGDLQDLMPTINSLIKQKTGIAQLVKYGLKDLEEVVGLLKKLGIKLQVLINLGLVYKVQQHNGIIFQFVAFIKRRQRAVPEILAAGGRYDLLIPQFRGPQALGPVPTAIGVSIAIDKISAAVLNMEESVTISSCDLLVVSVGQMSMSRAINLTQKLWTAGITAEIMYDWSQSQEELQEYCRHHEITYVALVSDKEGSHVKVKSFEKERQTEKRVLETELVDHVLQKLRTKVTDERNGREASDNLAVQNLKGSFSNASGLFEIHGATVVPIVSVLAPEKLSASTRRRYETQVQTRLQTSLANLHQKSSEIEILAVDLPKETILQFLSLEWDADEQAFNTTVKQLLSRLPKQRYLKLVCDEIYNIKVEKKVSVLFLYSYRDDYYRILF
SMILES,IC50 [1] [nM],IC50 [2] [nM]
"CNC(=O)[C@]1(C)CC[C@@H](Nc2ncc3c(Br)nn(-c4ccc(-c5nnc(C)s5)c(CCC(=O)O)c4)c3n2)C1 [3-[5-[3-bromo-6-[[(1R,3R)-3-methyl-3-(methylcarbamoyl)cyclopentyl]amino]pyrazolo[3,4-d]pyrimidin-1-yl]-2-(5-methyl-1,3,4-thiadiazol-2-yl)phenyl] propanoic acid]",25 to 200,
"C[C@H]1CN(C(=O)[C@@H]2CC[C@@H](Nc3ncc4c(Br)nn(-c5ccc6ncccc6c5)c4n3)C2)C[C@H](C)O1 [((1R,3R)-3-((3-bromo-1-(quinolin-6-yl)-1H-pyrazolo[3,4-d]pyrimidin-6-yl)amino)cyclo-pentyl)((2S,6S)-2,6-dimethylmorpholino) methanone]",25 to 200,
"CNC(=O)[C@]1(C)CC[C@@H](Nc2ncc3c(Br)nn(-c4cc(Cl)cc([C@H](C)N)c4)c3n2)C1 [Example 64, (1R,3R)-3-((1-(3-((S)-1-aminoethyl)-5-chlorophenyl)-3-bromo-1H-pyrazolo[3,4-d]pyrimidin-6-yl)amino)-N,1-dimethylcyclopentane-1-carboxamide]",,< 25
"CNC(=O)[C@]1(C)CC[C@@H](Nc2ncc3c(Br)nn(-c4ccc5c(c4)n(C)c(=O)c(=O)n5C)c3n2)C1 [(1R,3R)-3-[[3-bromo-1-(1,4-dimethyl-2,3-dioxo-quinoxalin-6-yl)pyrazolo [3,4-d]pyrimidin-6-yl]amino]-N,1-dimethyl-cyclopentanecarboxamide]",25 to 200,
CN1C(=O)CCC1CNC(=O)[C@@H]1CC[C@@H](Nc2ncc3c(Br)nn(-c4cc(C#N)c5ncccc5c4)c3n2)C1 (stereo partly drawn),< 25,
"N#CC1CN(C(=O)[C@@H]2CC[C@@H](Nc3ncc4c(Br)cn(-c5cc(F)c6ncccc6c5)c4n3)C2)C1 [1-((1R,3R)-3-((5-bromo-7-(8-fluoroquinolin-6-yl)-7H-pyrrolo[2,3-d]pyrimidin-2-yl)amino)cyclopentane-1-carbonyl)azetidine-3-carbonitrile]",< 25,
"CC(C)OCCNC(=O)[C@@H]1CC[C@@H](Nc2ncc3c(Br)nn(-c4ccc5ncccc5c4)c3n2)C1 [(1R,3R)-3-((3-bromo-1-(quinolin-6-yl)-1H-pyrazolo[3,4-d]pyrimidin-6-yl)amino)-N-(2-isopropoxyethyl)cyclopentane-1-carboxamide]",200 to 500,
"CNC(=O)[C@H]1CC[C@@H](Nc2ncc3c(Br)nn(-c4cnc5c(C#N)cccc5c4)c3n2)C1 [(1S,3R)-3-[[3-bromo-1-(8-cyano-3-quinolyl)pyrazolo[3,4-d]pyrimidin-6-yl]amino]-N-methyl-cyclopentanecarboxamide]",25 to 200,
CNC(=O)[C@]1(C)CC[C@@H](Nc2ncc3c(Br)nn(-c4cc(F)cc([C@H](C)N)c4)c3n2)C1,25 to 200,
"Cc1nnc(-c2ccc(-n3nc(Br)c4cnc(N[C@@H]5CC[C@](C)(O)C5)nc43)cc2CCC#N)s1 [3-[5-[3-bromo-6-[[(1R,3S)-3-hydroxy-3-methyl-cyclopentyl]amino]pyrazolo [3,4-d]pyrimidin-1-yl]-2-(5-methyl-1,3,4-thiadiazol-2-yl)phenyl]propanenitrile]",25 to 200,
"C[C@@H]1C(=O)N(C)CCN1C(=O)[C@@H]1CC[C@@H](Nc2ncc3c(Br)nn(-c4cc(C#N)c5ncccc5c4)c3n2)C1 [6-[3-bromo-6-[[(1R,3R)-3-[(2R)-2,4-dimethyl-3-oxo-piperazine-1-carbonyl]cyclopentyl]amino]pyrazolo[3,4-d]pyrimidin-1-yl] quinoline-8-carbonitrile]",< 25,
CNC(=O)[C@]1(C)CC[C@@H](Nc2ncc3c(Br)nn(-c4ccc5c(c4)C(N)CO5)c3n2)C1 (stereo partly drawn),25 to 200,
"CNC(=O)C1(C)CC[C@@H](Nc2ncc3c(Br)nn(-c4ccc(-c5cnn(CCOC)c5)cc4)c3n2)C1 (stereo partly drawn) [(3R)-3-[[3-bromo-1-[4-[1-(2-methoxyethyl)pyrazol-4-yl]phenyl]pyrazolo[3,4-d]pyrimidin-6-yl]amino]-N,1-dimethyl-cyclopentanecarboxamide]",25 to 200,
N#Cc1cc(-n2nc(Br)c3cnc(N[C@@H]4CC[C@@H](C(=O)N5CCS(=N)(=O)CC5)C4)nc32)cc2cccnc12,< 25,
C[C@H](N)c1cc(Cl)cc(-n2nc(Br)c3cnc(N[C@@H]4CC[C@@](C)(C(=O)N5CCP(C)(=O)CC5)C4)nc32)c1,25 to 200,
"CNC(=O)[C@]1(C)CC[C@@H](Nc2ncc3c(Br)nn(-c4ccc(-c5ncco5)c(CNCC(F)F)c4)c3n2)C1 [(1R,3R)-3-[[3-bromo-1-[3-[(2,2-difluoroethylamino)methyl]-4-oxazol-2-yl-phenyl]pyrazolo[3,4-d]pyrimidin-6-yl]amino]-N,1-dimethyl-cyclopentane-carboxamide]",25 to 200,
"COCc1noc([C@@H]2CC[C@@H](Nc3ncc4c(Br)nn(-c5ccc6ncccc6c5)c4n3)C2)n1 [Example 5, 3-bromo-N-((1R,3R)-3-(3-(methoxymethyl)-1,2,4-oxadiazol-5-yl)cyclopentyl)-1-(quinolin-6-yl)-1H-pyrazolo[3,4-d]pyrimidin-6-amine]",,500 to 1000
CC1(O)CC[C@@H](Nc2ncc3c(Br)nn(-c4cc(CCN)c5ncccc5c4)c3n2)C1 (stereo partly drawn),25 to 200,
"CNC(=O)[C@]1(C)CC[C@@H](Nc2ncc3c(Br)nn(-c4ccc(-c5nnc(C(C)(C)O)o5)cc4)c3n2)C1 [(1R,3R)-3-[[3-bromo-1-[4-[5-(1-hydroxy-1-methyl-ethyl)-1,3,4-oxadiazol-2-yl]phenyl]pyrazolo[3,4-d]pyrimidin-6-yl]amino]-N,1-dimethyl-cyclopentanecarboxamide]",25 to 200,
"CNC(=O)[C@]1(C)CC[C@@H](Nc2ncc3c(Br)nn(-c4ccc5c(c4)C(=O)C(=O)N5)c3n2)C1 [(1R,3R)-3-[[3-bromo-1-(2,3-dioxo-indolin-5-yl)pyrazolo[3,4-d]pyrimidin-6-yl]amino]-N,1-dimethyl-cyclo-pentanecarboxamide]",25 to 200,
CNC(=O)[C@]1(C)CC[C@@H](Nc2ncc3c(Br)nn(-c4ccc5c(c4)COC5=O)c3n2)C1,25 to 200,

# Second part, the compound after the results:
IC50 [1] [nM],IC50 [2] [nM],SMILES
25 to 200,,O=C1CN(C(=O)[C@@H]2CC[C@@H](Nc3ncc4c(Br)nn(-c5cc(F)c6ncccc6c5)c4n3)C2)CN1
< 25,,"CNC(=O)[C@]1(C)CC[C@@H](Nc2ncc3c(Br)nn(-c4ccc5ncc(NC(=O)CCN)cc5c4)c3n2)C1 [(1R,3R)-3-[[1-[3-(3-aminopropanoylamino)-6-quinolyl]-3-bromo-pyrazolo[3,4-d]pyrimidin-6-yl]amino]-N,1-dimethyl-cyclopentanecarboxamide]"
25 to 200,,"C[C@H](N)c1cc(Cl)cc(-n2nc(Br)c3cnc(N[C@@H]4CC[C@@](C)(C(=O)NCC(F)F)C4)nc32)c1 [(1R,3R)-3-[[1-[3-[(1S)-1-aminoethyl]-5-chloro-phenyl]-3-bromo-pyrazolo[3,4-d]pyrimidin-6-yl]amino]-N-(2,2-difluoro-ethyl)-1-methyl-cyclopentanecarboxamide]"
< 25,,"CCNC(=O)[C@]1(C)CC[C@@H](Nc2ncc3c(Br)nn(-c4cc(F)c5ncccc5c4)c3n2)C1 [(1R,3R)-3-[[3-bromo-1-(8-fluoro-6-quinolyl)pyrazolo[3,4-d]pyrimidin-6-yl]amino]-N-ethyl-1-methyl-cyclopentanecarboxamide]"
25 to 200,,"CNC(=O)[C@@]1(CC(F)F)CC[C@@H](Nc2ncc3c(Br)nn(-c4cc(CCO)c5ncccc5c4)c3n2)C1 [(1S,3R)-3-[[3-bromo-1-[8-(2-hydroxyethyl)-6-quinolyl]pyrazolo[3,4-d]pyrimidin-6-yl]amino]-1-(2,2-difluoroethyl)-N-methyl-cyclopentanecarboxamide]"
25 to 200,,"CC1(C(=O)NCCF)CC[C@@H](Nc2ncc3c(Br)nn(-c4cc(F)c5ncccc5c4)c3n2)C1 (stereo partly drawn) [(3R)-3-[[3-bromo-1-(8-fluoro-6-quinolyl)pyrazolo[3,4-d]pyrimidin-6-yl]amino]-N-(2-fluoroethyl)-1-methyl-cyclopentane-carboxamide]"
25 to 200,,"O=C([C@@H]1CC[C@@H](Nc2ncc3c(Br)nn(-c4cc(F)c5ncccc5c4)c3n2)C1)N1CCS(=O)(=O)CC1 [((1R,3R)-3-((3-bromo-1-(8-fluoroquinolin-6-yl)-1H-pyrazolo[3,4-d]pyrimidin-6-yl)amino)cyclopentyl)(1,1-dioxidothio-morpholino)methanone]"
25 to 200,,"CNC(=O)[C@]1(C)CC[C@@H](Nc2ncc3c(Br)nn(-c4ccc5ncncc5c4)c3n2)C1 [(1R,3R)-3-[(3-bromo-1-quinazolin-6-yl-pyrazolo[3,4-d]pyrimidin-6-yl)amino]-N,1-dimethyl-cyclopentane-carboxamide]"
25 to 200,,"CNC(=O)[C@]1(C(F)(F)F)CC[C@@H](Nc2ncc3c(Br)nn(-c4cc(F)c5ncccc5c4)c3n2)C1 [(1S,3R)-3-[[3-bromo-1-(8-fluoro-6-quinolyl)pyrazolo[3,4-d]pyrimidin-6-yl]amino]-N-methyl-1-(trifluoromethyl)cyclopentane-carboxamide]"
,25 to 200,"CNC(=O)C1(C)CC[C@@H](Nc2ncc3c(Br)nn(-c4cc(Cl)cc(CO)c4)c3n2)C1 (mixture of isomers) [Example 17, (3R)-3-((3-bromo-1-(3-chloro-5-(hydroxymethyl)phenyl)-1H-pyrazolo[3,4-d]pyrimidin-6-yl)amino)-N,1-dimethylcyclopentane-1-carboxamide]"
25 to 200,,"CNC(=O)[C@]1(C)CC[C@@H](Nc2ncc3c(Br)nn(-c4cc(CNCCC#N)c5ncccc5c4)c3n2)C1 [(1R,3R)-3-[[3-bromo-1-[8-[(2-cyanoethyl-amino)methyl]-6-quinolyl]pyrazolo[3,4-d]pyrimidin-6-yl]amino]-N,1-dimethyl-cyclopentanecarboxamide]"
< 25,,"CNC(=O)[C@]1(COC)CC[C@@H](Nc2ncc3c(I)nn(-c4cc(F)c5ncccc5c4)c3n2)C1 [(1R,3R)-3-[[1-(8-fluoro-6-quinolyl)-3-iodo-pyrazolo[3,4-d]pyrimidin-6-yl]amino]-1-(methoxymethyl)-N-methyl-cyclopentane-carboxamide]"
